From US4405643A, “Treatment of acute pulmonary edema with arginine esters” (Italfarmaco S.p.A., priority 1979, dated 1983) come the findings set out here.

A short description of test [1]: Protection against pulmonary edema (adrenaline-induced acute edema of the lungs). Type of test: in vivo, male albino rats of Wistar type. Conditions: parenteral, 15 min before adrenaline. Here is the method: The method of A. M. Rothschild and A. Castania (Arch. Pharmacol., 295, 177 (1976)), has been used to develop the acute edema in the lungs and substances of known therapeutic activity have been used for comparison purpose.
For the test, male albino rats of Wistar type of average weight 250-350 grams, have been used for the test. The rats were stabilized for a period of ten days at a temperature of 21°±1° C., under conditions of controlled diet and water "ad libitum". Prior to the test, the animals were divided into groups of ten for the purpose of achieving good randomization. Each dose was tried on three groups of animals. The animals were anesthetized with pentobarbital in a dose of 30 mg/kg at the beginning of the test. After the animals were in complete narcosis, the following substances were administered by the parenteral route:
1. to the animals as controls, physiological saline solution in the amount of 1 ml/kg,
2. to the animals in the test, a solution of the substance being tested in physiological saline solution in the amount of 1 ml/kg in the doses reported hereinbelow in the table.
After a period of 15 minutes, for the purpose of determining the protective activity of the substances, adrenaline was administered in the amount of 16 γ/kg by the endovenous route and in physiological saline solution, for the purpose of causing acute edema.
After five minutes, the animals were killed by removal of the head, the lungs were removed and the weight of the lungs were determined. The results of the test are reported in Table 1 hereinbelow, together with the concentration of the substances and the relative inhibition of edema in percent.

A short description of test [2]: Protection against shock caused by endotoxins (lipopolysaccharide B from S. Enteritidis). Type of test: in vivo, male rats of Wistar type. To be noted: parenteral, 1 h before endotoxin, after 24 h. The source says: Endotoxin-induced shock has been produced according to the method reported by A. Bertelli and L. Donati, in the publication "The Influence of Some Enzymes and Enzymes Inhibitors in Shock", published in "SHOCK Biochemical,Pharmaceutical and Clinical Aspects"; A. Bertelli and N. Back Editors, Advances in Experimental Medicine and Biology; Volume 9, Plenum Press New York - London 1970, page 215. By way of comparison, there has been used a substance of well known therapeutical activity, specifically aprotinine, the commercial products marketed by Farbenfabriken Bayer, under the name "Trasylol". Male rats of Wistar type of 120 grams by weight ±10 have been used. The rats were previously stabilized for a period of ten days at a temperature of 21°±1° C. under a controlled diet and water "ad libitum". Twenty-four hours prior to the test, the animals were divided in groups of ten for the purpose of achieving randomization. Every single dose has been tried on six groups of animals.
Lipopolysaccharide B from S. Enteritidis (Difco Labs.) was used as the endotoxin. This substance was administered in the dose of 10 mg/kg by the endoperitoneal route, one hour after administration of the substance being administered by the parenteral route or in the form of a physiological solution in equal volume per kilogram to the animals being used as control.
The mortality in percent was determined in the animals being tested as compared with the controls after twenty-four hours.

A short description of test [3]: Protection against anaphylactic shock (horse serum). To be noted: parenteral, with horse serum challenge, after 12 h. Type of test: in vivo, male albino guinea pigs. The protocol: The anaphylactic shock has been induced according to the method of S. M. Feinberg, M. Pharmacol. Exp. Therapeut., 99, 195 (1950). There have been used male albino guinea pigs of average weight, 350±20 grams previously stabilized for a period of ten days at a temperature of 21°±1° C., under conditions of controlled diet and water "ad libitum". Three days before the beginning of the experiment, the animals are divided in groups of ten for the purpose of achieving good randomization. Each single dose has been tried on three groups of animals.
The sensitization has been carried out by administration of 1 ml/guinea pig through the endovenous route of horse serum, (whole serum, not treated with preservatives) diluted 1:10 in physiological saline solution. After 14 days, the solutions of the substances being tested and the samples of physiological solutions for use with the controls are administered through the parenteral route. Simultaneously, 1 ml/guinea pig of horse serum, undiluted is administered, this substance being used as the agent which prompts the anaphylaxis. The percentage of mortality is determined after 12 hours.

The subject of test [4] is Fibrin Degradation Products. Briefly: Inhibition of hyperfibrinolysis caused by urokinase (F.D.P., staphylococcal clumping test). The test is classed as in vivo, Wistar rats. Conditions: parenteral, 30 min before urokinase 2500 U.I/rat. Here is the method: The induction of hyperfibrinolysis state is caused by administration of urokinase. The determination of the inhibition is carried out by determination of the F.D.P. value, that is Fibrin Degradation Products, according to the procedure of J. Hawiger et al, J. Lab. Clin. Med. 75, 93 (1970), by means of the staphylococcal clumping test (Boehringer Mannheim GmbH test).
There are used Wistar rats of 300 grams ±10 by weight previously stabilized for a period of ten days at a temperature of 21°±1° C., under conditions of controlled diet and water "ad libitum". Twenty-four hours prior to the beginning of the experiment, the animals are divided in groups of ten for the purpose of achieving randomization. Each individual dose is tried on three groups of animals.
At the beginning of the test, zero time, the compounds being tested are administered through the parenteral route. In the case of the control animals, at the same time an equal volume of a physiological saline solution is administered except that some blood is removed by means of a cardiac puncture, for the purpose of determining the basal fibrinolytic activity. After 30 minutes, human urokinase (the composition marketed by Ukidan-Serono) is administered intravenously in the amount of 2500 U.I/rat. After an additional period of ten minutes, blood is removed by means of a cardiac puncture for the final determination of F.D.P., a determination which is expressed in […].

On to `N=C(N)NCCC[C@H](N)C(=O)O` [L-Arginine.2HCl], for which the “% INHIBITION OF EDEMA” value in test [1] (dose 1 mg/kg) came to 7%; in test [1] (dose 2.5 mg/kg) it was 9%; in test [1] (dose 5 mg/kg) it was 11%; in test [1] (dose 10 mg/kg), 10.1%; in test [1] (dose 20 mg/kg) it was 13.1%. Moreover, the “% MORTALITY” value in test [2] (dose 5 mg/kg) was determined as 69%; in test [2] (dose 10 mg/kg), 73%; in test [2] (dose 20 mg/kg) it was 71%; in test [2] (dose 50 mg/kg) it was 78%; in test [3] (dose 10 mg/kg) it was 78.5%; in test [3] (dose 20 mg/kg), 76.3%. Besides, in test [3] (dose 50 mg/kg), the “% MORTALITY” value is 80%. For the same compound, the F.D.P. is 3.28 milliliters in test [4] (dose 5 mg/kg), 2.96 milliliters in test [4] (dose 10 mg/kg) and 3.15 milliliters in test [4] (dose 20 mg/kg).
`CO` [Methanol]: the “% INHIBITION OF EDEMA” value was 2.3% in test [1] (dose 0.08 mg/kg); 5% in test [1] (dose 0.8 mg/kg); 12% in test [1] (dose 2 mg/kg); 6% in test [1] (dose 4 mg/kg); 15% in test [1] (dose 8 mg/kg); 15% in test [1] (dose 16 mg/kg). Besides, the “% MORTALITY” value is listed as 76% in test [2] (dose 2 mg/kg); 72% in test [2] (dose 4 mg/kg); 74% in test [2] (dose 8 mg/kg); 76.6% in test [3] (dose 2 mg/kg); 79.4% in test [3] (dose 4 mg/kg); 81% in test [3] (dose 8 mg/kg). The values for the F.D.P. in test [4] (dose 2 mg/kg), in test [4] (dose 4 mg/kg) and in test [4] (dose 8 mg/kg) were 3.02 milliliters, 3.12 milliliters and 3.27 milliliters, respectively.
Turning to Aprotinin, the “% INHIBITION OF EDEMA” value in test [1] (dose 30 U.I.K./kg) is 17.3%; in test [1] (dose 100 U.I.K./kg), 36.5%; in test [1] (dose 300 U.I.K./kg) it was 54.5%; in test [1] (dose 1000 U.I.K./kg), 42.7%. For the same compound, the “% MORTALITY” value in test [2] (dose 1000 U.I.K./kg) is reported as 50.0%; in test [2] (dose 3000 U.I.K./kg), 65.0%; in test [2] (dose 10000 U.I.K./kg), 65.0%; in test [2] (dose 100000 U.I.K./kg) it was 93.3%; in test [3] (dose 3000 U.I.K./kg) it was 40%; in test [3] (dose 10000 U.I.K./kg), 55%. Also, the “% MORTALITY” value in test [3] (dose 100000 U.I.K./kg) came out at 80%. Moreover, the figures for the F.D.P. in test [4] (dose 1000 U.I.K./kg), in test [4] (dose 3000 U.I.K./kg) and in test [4] (dose 10000 U.I.K./kg) were 0.34 milliliters, 0.29 milliliters and 0.30 milliliters, respectively.
